Assay results as given in patent US7939534B2, “Certain chemical entities, compositions, and methods” (Cytokinetics, Inc., priority 2006, dated 2011).

Molecular target: T1, chicken gizzard smooth muscle myosin subfragment-1 chemically crosslinked to either cardiac or skeletal actin (Gallus gallus, UniProt P10587)
T1 construct: chicken gizzard smooth muscle myosin subfragment-1; from tissue; host or cells: chicken gizzard
Experiment: Dose dependent smooth muscle myosin ATPase modulation (pyruvate kinase/horseradish peroxidase/pyruvate oxidase-coupled ATPase assay)
Type: biochemical
Conditions: read-out: IC50 Arithmetic Mean
In short: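 Chicken gizzard smooth muscle myosin S1 crosslinked (EDC/NHS) to cardiac or skeletal actin, concentration titrated to a set ATPase rate. Pyruvate kinase/pyruvate oxidase/HRP-coupled assay, 0.15 mM ATP, 12 mM K-PIPES pH 7.00, 100 mM KCl, amplex red fluorescence; IC50 from 4-parameter fit.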

Question: For `CC(=O)NC1CCN(c2ccc(C(=O)NCc3cccnc3)c(NCCc3cccc(F)c3)n2)C1` (centres unmarked) [Compound 118, N-[1-(6-{[2-(3-fluorophenyl)ethyl]amino}-5-[N-(3-pyridylmethyl)carbamoyl]-2-pyridyl)pyrrolidin-3-yl]acetamide], which IC50 is on record?
Answer: 20.7 µM

Question: `O=C(NCc1cccnc1)c1ccc(N2CCOC(CO)C2)nc1NCCc1cccc(F)c1` (centres unmarked) [Compound 119, (2-{[2-(3-fluorophenyl)ethyl]amino}-6-[2-(hydroxymethyl)morpholin-4-yl](3-pyridyl))-N-(3-pyridylmethyl)carboxamide] was tested. Which IC50 did it give?
Answer: 7.21 µM

Question: How did the IC50 turn out when `CN[C@H]1CCN(c2ccc(C(=O)NCc3cccnc3)c(NCCc3cccc(F)c3)n2)C1` [Compound 120, (6-[(3S)-3-(methylamino)pyrrolidinyl]-2-{[2-(3-fluorophenyl)ethyl]amino}(3-pyridyl))-N-(3-pyridylmethyl)carboxamide] was run?
Answer: 59.5 µM

Question: `O=C(NCc1cccnc1)c1ccc(N2CCSCC2)nc1NCCc1cccc(F)c1` [Compound 121, (2-{[2-(3-fluorophenyl)ethyl]amino}-6-(1,4-thiazaperhydroin-4-yl)(3-pyridyl))-N-(3-pyridylmethyl)carboxamide] was tested. Which IC50 did it give?
Answer: 1.57 µM

Question: Which IC50 does the source give for `O=C(NCc1cccnc1)c1ccc(N2CCS(=O)(=O)CC2)nc1NCCc1cccc(F)c1` [Compound 122, (6-(1,1-dioxo(1,4-thiazaperhydroin-4-yl))-2-{[2-(3-fluorophenyl)ethyl]amino}(3-pyridyl))-N-(3-pyridylmethyl)carboxamide] here?
Answer: 29.9 µM

Question: With `CC(=O)N1CCN(c2ccc(C(=O)NCc3cccnc3)c(NCCc3cccc(F)c3)n2)CC1` [Compound 123, (6-(4-acetylpiperazinyl)-2-{[2-(3-fluorophenyl)ethyl]amino}(3-pyridyl))-N-(3-pyridylmethyl)carboxamide] as the compound, how does the IC50 read?
Answer: 8.57 µM

Question: How did the IC50 turn out when `O=C(NCc1cccnc1)c1ccc(N2CCC(N3CCCCC3)CC2)nc1NCCc1cccc(F)c1` [Compound 124, (2-{[2-(3-fluorophenyl)ethyl]amino}-6-(4-piperidylpiperidyl)(3-pyridyl))-N-(3-pyridylmethyl)carboxamide] was run?
Answer: 29.7 µM

Question: With `CCOC(=O)N1CCN(c2ccc(C(=O)NCc3cccnc3)c(NCCc3cccc(F)c3)n2)CC1` [Compound 125, ethyl 4-(6-{[2-(3-fluorophenyl)ethyl]amino}-5-[N-(3-pyridylmethyl)carbamoyl]-2-pyridyl)piperazinecarboxylate] as the compound, how does the IC50 read?
Answer: 3.16 µM

Question: How did the IC50 turn out when “N-[((2R)-1-{4-[(tert-butoxy)carbonylamino]butanoyl}pyrrolidin-2-yl)methyl](5-fluoro-2-{[2-(3-fluorophenyl)ethyl]amino}-6-pyrrolidinyl(3-pyridyl))carboxamide [Compound 75]” was run?
Answer: 8.55 µM

Question: For “N-{[(2R)-1-(2-aminoacetyl)pyrrolidin-2-yl]methyl}(5-fluoro-2-{[2-(3-fluorophenyl)ethyl]amino}-6-pyrrolidinyl(3-pyridyl))carboxamide [Compound 76]”, which IC50 is on record?
Answer: 0.212 µM

Question: “N-{[(2R)-1-(4-aminobutanoyl)pyrrolidin-2-yl]methyl}(5-fluoro-2-{[2-(3-fluorophenyl)ethyl]amino}-6-pyrrolidinyl(3-pyridyl))carboxamide [Compound 74]” was tested. Which IC50 did it give?
Answer: 0.308 µM
